From patent US20080146633A1, “COMPOSITIONS FOR SKIN LIGHTENING AND TONING DOWN PIGMENT DISORDERS, COMPRISING CREATININE AND/OR CREATININE DERIVATIVES AS ACTIVE SUBSTANCES” (GOLDSCHMIDT GMBH, priority 2002, published 2008) come the findings set out here.

In experiment [1] the test system is MelanoDerm in vitro skin model (melanocytes). The experiment can be described thus: In vitro skin model test (MelanoDerm), melanin determined quantitatively. The experiment is classed as cell-based. The settings on record: for Melanin: applied every 48 hours. The source says: The skin-lightening effect was validated on an in vitro skin model, the MelanoDerm™ from MatTek. This model is very similar in structure and function to the natural skin and has the cell types relevant in the epidermis including the melanocytes, which are responsible for the synthesis of the main pigment melanin. Further information can be found, for example, in M. K. King et al. in Proceedings of Society of Cosmetic Chemists Annual Scientific Meeting and Technology Showcase 1998, 35-36. Creatinine, kojic acid dipalmitate as positive standard and water as negative control were applied every 48 hours over a period of 21 days to the in vitro skin model.
The melanin produced by the melanocytes was determined quantitatively on the 17th and 21st day.

Experiment [2] deals with fungi tyrosinase. Nature of the experiment: Tyrosinase inhibition (L-Dopa to dopachrome, absorption at 475 nm). The note with it: 15 min at room temperature. Format: biochemical. The protocol: The inhibition of fungi tyrosinase was determined as a function of different concentrations of creatinine (0.05 to 1.7% by volume) by reference to the enzymatic reaction of L-Dopa to dopachrome. The absorption maximum of the dopachrome is at a wavelength of 475 nm. The tyrosinase inhibition is calculated in accordance with the following equation:
Inhibition [%]={100−[(Esample*100)/Ereference]} (1)
each measurement was carried out in duplicate, with parallel mixtures. The variation of the method is ±10%,
25 mM acetate buffer (pH 4.9): dilute from 0.2 M acetate buffer (pH 4.9) (Sigma) Phosphate buffer (pH 7): Titrosol (Merck) 20 mM L-DOPA (in acetate buffer) Tyrosinase stock solution: 40 U/ml of phosphate buffer Stock solution of creatinine: 0.45 M in phosphate buffer
The DOPA solution and the tyrosinase stock solution were prepared only prior to the start of the experiment. The L-DOPA solutions should be stored in a dark place and in vessels which can be sealed tightly.
500 μL of DOPA stock solution 400 μL of creatinine solution or phosphate buffer (reference) 100 μL of tyrosinase stock solution Following the addition of the enzyme, the samples were thoroughly mixed using a “Reax Top” (Heidolph). Following an incubation period of 15 min at room temperature, the absorption at 475 nm was determined. The measurement was carried out using a “Helios Beta” spectrophotometer from Unicam.

As for `CN1CC(=O)NC1=N` [Creatinine, 2-imino-N-methylhydantoin], the “Melanin” value in experiment [1] (Day 17) is 94.5 µg; in experiment [1] (Day 21) it was 12.67 µg. For the same compound, the “Effectiveness compared with kojic acid dipalmitate (positive standard)” value in experiment [1] (upon prolonged application) is recorded as “twice as effective”. The “Tyrosinase inhibition (%)” value in experiment [2] (creatinine 0.05 % by volume) was found to be 1.77%; in experiment [2] (creatinine 0.30 % by volume), 9.97%; in experiment [2] (creatinine 0.60 % by volume) it was 14.21%; in experiment [2] (creatinine 0.90 % by volume) it was 20.75%; in experiment [2] (creatinine 1.10 % by volume), 24.81%; in experiment [2] (creatinine 1.40 % by volume) it was 28.15%. The “Tyrosinase inhibition (%)” value in experiment [2] (creatinine 1.70 % by volume) is 32.18%.

As to `CCCCCCCCCCCCCCCC(=O)OCc1cc(=O)c(OC(=O)CCCCCCCCCCCCCCC)co1` [Kojic dipalmitate, kojic acid dipalmitate, reference compound], the “Melanin” value in experiment [1] (Day 17) was 102.5 µg; in experiment [1] (Day 21), 82.67 µg.
